The text below walks through data of US10399931B2, “Octahydroanthracene compound, preparation method and application thereof” (SHANDONG XINHUA PHARMACEUTICAL CO., LTD., priority 2016, dated 2019).

Entries after “also recorded” stand apart in the source; their conditions may differ.

What all share (assay type): in vivo
Test [1] relates to APP/PS1 double transgenic AD model mice. Put plainly: Pathology of hippocampal CA1 neurons in APP/PS1 mice.
In a further test the test system is APP/PS1 mice. In words: Patch clamp experiment, LTP (synaptic function).
For test [2], the system named is APP/PS1 double transgenic AD model mice. In words: Behavioral experiments (new object discrimination, Y-maze, Morris water maze, nesting, social interaction). As to conditions: 14 days or 3 months. Here is the method: The drugs were administered three days after the adaptive feeding. Peanut oil was used as the solvent. The drug was intragastric administered once a day for 15 days. On the 6th to 9th day after the administration, the new object identification test was performed. On the 10th day, the Y-maze test was performed. On the 11th to 15th day, the Morris water maze test was performed to determine the improvement of learning and memory. The administration of the drugs was continued during the behavioral experiment until the animals were sacrificed (16th day). The experimental device is a wooden square open field with a size of 50 cm×50 cm×15 cm. […] The mouse was placed back to the objects at equal distance from the two identical objects on the other side of the experimental device, and the time (tA1, tA2) used to explore the two objects within 5 minutes was recorded. After 1 h, A2 was replaced with a new object (B) and the mouse was placed in the test site again, the time (tA1, tB) used to explore the two objects was recorded. After 24 h, the object B was replaced with a new object (C), and the mouse was placed in the test site again, the time (tA1, tC) used to explore the two objects was recorded. […] The preferential index and the discrimination index of the new objects for each group of the experimental mice were calculated separately. […]

Another test relates to APP/PS1 transgenic mice. Put plainly: Morris water maze test (oriented navigation and probe test). As to conditions: for Number of times traversing the safe platform vs model group / Percentage of the swimming distance in the target quadrant vs model group / Swimming time in the target quadrant vs model group: probe test. Here is the method: The drugs were administered three days after the adaptive feeding. Peanut oil was used as the solvent. The drug was intragastric administered once a day for 15 days. On the 6th to 9th day after the administration, the new object identification test was performed. On the 10th day, the Y-maze test was performed. On the 11th to 15th day, the Morris water maze test was performed to determine the improvement of learning and memory. The administration of the drugs was continued during the behavioral experiment until the animals were sacrificed (16th day).
The experimental device includes a black circular pool with a diameter of 100 cm and a height of 40 cm, and a white platform (safe platform) having a diameter of about 10 cm. The location of the safe platform could be moved. Morris Water Maze Video Detection and Analysis System was provided by the Institute of Materia Medica, China Academy of Medical Sciences. One day before the experiment, water was injected into the black circular pool (water temperature 22±1° C.), and white pigment was added to mix uniformly. The water surface was usually about 1 cm higher than the top of the safe platform. The pool was divided into four quadrants I, II, III and IV, and the safe platform was usually placed in the middle of the quadrant IV. The experiment was divided into two parts: (1) Oriented navigation: the animal grouping was input into a computer software in advance. The position of the safe platform was kept unchanged during the experiment. During the test, the experimental animal facing the pool wall was placed in the water from different inlets, and the computer simultaneously collected data and recorded the time to find the safe platform (escape latency). Data collection automatically stopped when the animal stayed on the safe platform for 10 s. The data acquisition time of the mouse was 60 s. If the animal could not find the safe platform within the specified time, the escape latency was recorded as 60 s. At the same time, the operator induced the animal to reach the safe platform and stay for 10 s. The animal was trained twice a day for 4 consecutive days. (2) Probe test: after the oriented navigation test is completed, the safe platform is removed and the animal was placed in the pool free to explore for 60 s. The camera system automatically recorded the time and distance of the experimental animal swimming in the quadrant of the safe platform within the specified time and the number of times passing through the location of the safe platform.

For `CC1(C)CCC(C)(C)c2c1cc1c(c2NC(=O)c2ccc(NC(=O)NCCN)cc2)C(C)(C)CCC1(C)C` [OAB-14, 1-(2-amino) ethyl-3-{4-[(1,1,4,4,5,5,8,8-octamethyl-1,2,3,4,5,6,7,8-octahydro-9-anthryl)carbamoyl]phenyl} urea], the “Morphology of hippocampal CA1 neurons” value in test [1] (100 mg/kg group) was “closely arranged, no visible edema and nuclear pyknosis”; in test [1] (200 mg/kg group), “closely arranged, no visible edema and nuclear pyknosis”. The LTP result in the test with APP/PS1 mice (100 mg/kg group) and with APP/PS1 mice (200 mg/kg group) was “significantly enhanced” each time. The “Learning and memory disorders in new object discrimination, Y-maze, Morris water maze, nesting and social interaction tests” value in test [2] (50, 100 and 200 mg/kg intragastric, 8-month-old APP/PS1 mice) is reported as “dose-dependently improve”. The “Behavioral effect of the high-dose group compared with donepezil and blank groups” value in test [2] (high-dose group) was “significantly stronger than that of the donepezil group and completely restored to the level of the blank control group; also recorded: significantly stronger than the donepezil group and completely recovered to the level of the blank group”. Besides, the “Total swimming distance vs model group” value is “significantly reduced” with APP/PS1 transgenic mice (100 mg/kg, fourth day of training) and “significant decrease” in the test with APP/PS1 transgenic mice (200 mg/kg, from the third day of training). Besides, the “Escape latency vs model group” value was “significantly reduced” in the test on APP/PS1 transgenic mice (100 mg/kg, third and fourth days of training); “significant decrease” in the test on APP/PS1 transgenic mice (200 mg/kg, from the second day of training). Besides, the “Number of times traversing the safe platform vs model group” value with APP/PS1 transgenic mice (100 mg/kg) and with APP/PS1 transgenic mice (200 mg/kg) was “significantly increased” in each case. For the same compound, the “Percentage of the swimming distance in the target quadrant vs model group” value with APP/PS1 transgenic mice (100 mg/kg) and with APP/PS1 transgenic mice (200 mg/kg) was “significantly increased” each time. Also, the “Swimming time in the target quadrant vs model group” value in the test with APP/PS1 transgenic mice (100 mg/kg) and in the test on APP/PS1 transgenic mice (200 mg/kg) was “significantly increased” throughout. In the test with APP/PS1 transgenic mice (water maze oriented navigation, overall), the “Spatial learning and memory disorders of the APP/PS1 mice” value is reported as “significantly improved”.
